Laboratory results: patent US20070142437A1, “CHEMICAL COMPOUNDS” (priority 2005, published 2007)

Experiments:
Type in all cases: biochemical
[1] = molecular target: hVEGFR2 (Homo sapiens, UniProt P35968); assay: VEGFR2 HTRF assay; conditions: Inhibition of VEGFR2
Experimental: The compounds of the present invention elicit important and measurable pharmacological responses. Different compounds from this class are particularly effective at inhibiting VEGFR2 enzymes, as described by the VEGFR2 HTRF assay below, at concentrations, which range from 0.0001 to 1 μM.
The assays were performed in 96-well black plates. 10 nM hVEGFR2 was used to phosphorylate 0.36 μM peptide (Biotin-Ahx-EEEEYFELVAKKKK) in the presence of 75 μM ATP, 5 mM MgCl2, 0.3 mM DTT, 0.1 mg/ml BSA, and 0.1 M HEPES (pH 7.5). 10 μl 0.5 M EDTA was added to reactions as negative controls. The 50 μl kinase reaction with or without inhibitors in 5% DMSO was carried out at room temperature for 45 minutes, then stopped by 40 μl of 125 mM EDTA. 2.4 μg/ml Streptavidin-APC and 0.15 μg/ml Eu-α-pY, in the presence of 0.1 mg/ml BSA, 0.1 M HEPES (pH7.5), were added to a final volume of 140 μl. The plate was incubated for 10 min at room temperature (22° C.) and read on the Victor with the time resolved fluorescence mode by exciting at 340 nm and reading the emission at 665 nm.
• Peptide from Synpep (Dublin, Calif.) • ATP, MgCl2, DTT, BSA, HEPES, EDTA, DMSO from Sigma Streptavidin-APC from Molecular Probes (Eugene, Oreg.) • Eu-α-pY from EG&G Wallac (Gaithersburg, Md.)

[2] = molecular target: T1, CDK2 (Homo sapiens, UniProt P24941); assay: CDK2 substrate phosphorylation assay (biotinylated peptide, 32P-ATP); conditions: Inhibition of CDK2
T1 construct: made in house
Experimental: (§1) The compounds of the present invention have valuable pharmacologic properties. Different compounds from this class are particularly effective at inhibiting CDK2 and/or CDK4 enzymes at concentrations, which range from 0.0001 to 1 μM and additionally show specificity relative to other kinases. Substrate phosphorylation assays were carried out as follows:
Cyclin dependent protein kinase 2 assays utilized the peptide Biotin-aminohexyl-ARRPMSPKKKA-NH2 as phosphoryl group acceptor. CDK2 was expressed utilizing a baculovirus expression system and was partially purified to comprise 20-80% of total protein, with no detectable competing reactions present. Typically, assays were performed by incubating enzyme (0.2-10 nM), with and without inhibitor, peptide substrate (1-10 nM), [g-^32P]ATP (1-20 nM), and 10-20 mM Mg^2+ for periods of time generally within the range 10-120 minutes. Reactions were terminated with 0.2-2 volumes of either 20% acetic acid or 50-100 mM EDTA buffered to pH 7 (substrate consumption <20%). The buffer employed in enzyme assay was 100 mM HEPES pH 7.5 containing 0.1 mg/mL BSA and 5% DMSO. Inhibitors were diluted in 100% DMSO prior to addition into the assay. Detection of peptide phosphorylation was accomplished by scintillation counting following either collection of peptide onto phosphocellulose filters (for reactions stopped with acetic acid), collection of peptide in wells of 96 well plates coated with Streptavidin (Pierce) (reactions were stopped with EDTA), or addition of Avidin coated Scintillant impregnated beads (Scintillation Proximity Assays from Amersham, reactions were stopped with EDTA). Counts detected by any of these methodologies minus the appropriate background (assays with additional 40 mM EDTA or lacking peptide substrate) were assumed to be proportional to the reaction initial rates, and IC50s were determined by a least squares fit to the equation CPM=Vmax*(1−([I]/(K+[I])))+nsb, or −pIC50s were determined by a fit to the equation CPM=nsb+(Vmax−nsb)/(1+(x/10^x−pIC50)), where nsb are the background counts. Filters are washed four times with 75 mM phosphoric acid. Radioactivity was determined by liquid scintillation counting.

[3] = molecular target: T2, CDK4 (Homo sapiens, UniProt P11802); assay: CDK4 substrate phosphorylation assay (Rb protein, 33P-ATP); conditions: Inhibition of CDK4
T2 construct: made in house
Experimental: as §1
Cyclin D1 and cyclin-dependent kinase 4 were expressed utilizing a baculovirus expression system. The catalytic activity of CDK4 protein was assayed by measuring the phosphorylation of Rb protein. A truncated Rb protein (residues 773-928 of the native retinoblastoma protein, fused to glutathione S-transferase to facilitate purification) was used as the phosphoryl acceptor. The assay conditions were 100 mM HEPES (N-[2-hydroxyethyl]piperzine-N′-[2-ethanesulfonic acid]), pH 7.5, 0.5 μM GST-Rb protein, 1 μCi/mL [^33P]-ATP (1 nM-20 μM), 5-20 mM MgCl2, 2.5 mM EDTA, 1 mM dithiotheitol, 0.2 mg/mL bovine serum albumin, 2% (v/v) dimethyl sulfoxide (DMSO), CDK4 enzyme (5-50 nM) in a final volume of 50 μL. Reactions were incubated for time periods of 10-60 min at 30° C. and terminated by the addition of 50 μL quench (1 mM ATP/100 mM EDTA, pH 7.0). Detection of protein phosphorylation was accomplished by scintillation counting following collection of protein in 96 well plates coated with Glutathione or trapping of protein onto phosphocellulose filters. Counts detected by these methodologies minus the appropriate background were assumed to be proportional to the reaction initial rates. IC50 values were determined by measuring enzyme activity in the presence of different inhibitor concentrations (0.1 nM to 50 μM). IC50s were determined by a least squares fit to the equation CPM=Vmax*(1−([I]/(K+[I])))+nsb, or pIC50s were determined by a fit to the equation CPM=nsb+(Vmax−nsb)/(1+(x/10^x−pIC50)), where nsb are the background counts.

T2 sequence (P11802 whole entry, species assumed): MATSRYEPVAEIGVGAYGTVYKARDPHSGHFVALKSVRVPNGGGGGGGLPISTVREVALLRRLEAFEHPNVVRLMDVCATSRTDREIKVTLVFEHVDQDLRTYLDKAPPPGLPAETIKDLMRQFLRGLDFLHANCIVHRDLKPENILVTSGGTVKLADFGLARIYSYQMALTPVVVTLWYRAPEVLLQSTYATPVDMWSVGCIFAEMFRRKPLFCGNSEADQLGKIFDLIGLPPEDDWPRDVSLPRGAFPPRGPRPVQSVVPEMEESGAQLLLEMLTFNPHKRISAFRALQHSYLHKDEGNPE
T2 sequence (P24385 whole entry partner, species assumed): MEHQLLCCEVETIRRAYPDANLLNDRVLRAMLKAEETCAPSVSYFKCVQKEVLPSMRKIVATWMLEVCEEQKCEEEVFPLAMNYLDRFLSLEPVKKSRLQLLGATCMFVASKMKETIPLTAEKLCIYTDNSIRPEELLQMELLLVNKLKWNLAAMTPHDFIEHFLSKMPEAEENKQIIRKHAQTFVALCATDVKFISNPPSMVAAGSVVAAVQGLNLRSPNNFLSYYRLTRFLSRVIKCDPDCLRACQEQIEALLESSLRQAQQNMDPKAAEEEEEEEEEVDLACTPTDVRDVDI
Sequence of hVEGFR2 (P35968 20-1356): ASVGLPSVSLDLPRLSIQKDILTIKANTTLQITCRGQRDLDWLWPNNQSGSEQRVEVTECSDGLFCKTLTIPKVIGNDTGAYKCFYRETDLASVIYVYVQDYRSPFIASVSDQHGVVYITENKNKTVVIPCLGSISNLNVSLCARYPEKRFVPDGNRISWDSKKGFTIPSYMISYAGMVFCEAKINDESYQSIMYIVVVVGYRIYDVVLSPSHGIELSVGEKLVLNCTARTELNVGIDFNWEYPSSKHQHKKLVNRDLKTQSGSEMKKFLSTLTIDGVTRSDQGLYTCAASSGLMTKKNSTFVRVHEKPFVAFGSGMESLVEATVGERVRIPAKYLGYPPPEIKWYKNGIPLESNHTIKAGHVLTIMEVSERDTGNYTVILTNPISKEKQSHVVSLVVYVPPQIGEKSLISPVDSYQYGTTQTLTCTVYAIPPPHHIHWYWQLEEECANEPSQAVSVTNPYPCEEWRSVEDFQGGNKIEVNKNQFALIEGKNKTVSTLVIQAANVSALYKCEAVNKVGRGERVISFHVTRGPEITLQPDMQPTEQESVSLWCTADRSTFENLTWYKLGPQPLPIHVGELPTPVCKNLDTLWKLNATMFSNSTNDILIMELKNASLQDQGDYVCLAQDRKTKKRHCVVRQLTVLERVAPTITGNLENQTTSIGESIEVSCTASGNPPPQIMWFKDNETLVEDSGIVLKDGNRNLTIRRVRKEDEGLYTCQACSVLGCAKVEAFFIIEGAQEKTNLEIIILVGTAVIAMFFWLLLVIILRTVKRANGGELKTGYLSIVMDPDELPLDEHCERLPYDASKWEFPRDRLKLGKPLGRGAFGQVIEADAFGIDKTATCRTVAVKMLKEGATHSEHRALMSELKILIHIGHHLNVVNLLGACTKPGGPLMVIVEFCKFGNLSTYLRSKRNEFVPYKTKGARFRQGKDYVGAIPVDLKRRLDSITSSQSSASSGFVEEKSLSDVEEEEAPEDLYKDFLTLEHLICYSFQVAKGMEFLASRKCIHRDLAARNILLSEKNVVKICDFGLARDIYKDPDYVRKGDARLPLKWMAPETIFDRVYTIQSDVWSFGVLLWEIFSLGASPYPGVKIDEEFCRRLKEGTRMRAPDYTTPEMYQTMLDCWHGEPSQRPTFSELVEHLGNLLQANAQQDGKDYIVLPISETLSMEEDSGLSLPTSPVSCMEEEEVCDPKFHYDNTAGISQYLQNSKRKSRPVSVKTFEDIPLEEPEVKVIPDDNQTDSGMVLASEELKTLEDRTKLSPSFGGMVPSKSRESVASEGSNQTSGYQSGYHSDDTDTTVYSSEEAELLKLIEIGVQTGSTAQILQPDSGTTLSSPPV

Compound | IC50 [1] [nM] | IC50 [2] [nM] | IC50 [3] [nM]
COc1cccc(-c2cnc(Nc3ccccc3)o2)c1 [Example 1, 5-(3-methoxyphenyl)-N-phenyl-1,3-oxazol-2-amine] | < 10000 | < 1000 | < 1000
Oc1cccc(-c2cnc(Nc3ccccc3)o2)c1 [Example 2, 3-(2-anilino-1,3-oxazol-5-yl)phenol] | < 1000 | < 1000 | < 1000
CN1CCN(c2ccc(Nc3ncc(-c4ccccc4)o3)cc2)CC1 [Example 3, N-[4-(4-methylpiperazin-1-yl)phenyl]-5-phenyl-1,3-oxazol-2-amine] | < 1000 | < 10000 | < 1000
COc1cccc(-c2cnc(Nc3ccc(N4CCN(C)CC4)cc3)o2)c1 [Example 4, 5-(3-Methoxyphenyl)-N-[4-(4-methylpiperazin-1-yl)phenyl]-1,3-oxazol-2-amine] | < 1000 | < 1000 | < 100
CCOc1cccc(-c2cnc(Nc3ccc(N4CCN(C)CC4)cc3)o2)c1 [Example 5, 5-(3-Ethoxyphenyl)-N-[4-(4-methylpiperazin-1-yl)phenyl]-1,3-oxazol-2-amine] | < 1000 | < 1000 | < 100
CCN1CCN(c2ccc(Nc3ncc(-c4cccc(OC)c4)o3)cc2)CC1 [Example 6, N-[4-(4-Ethylpiperazin-1-yl)phenyl]-5-(3-methoxyphenyl)-1,3-oxazol-2-amine] | < 1000 | < 1000 | < 100
CCN1CCN(c2ccc(Nc3ncc(-c4ccccc4)o3)cc2)CC1 [Example 7, N-[4-(4-Ethylpiperazin-1-yl)phenyl]-5-phenyl-1,3-oxazol-2-amine] | < 1000 | < 10000 | < 1000
c1ccc(-c2cnc(Nc3ccc(CN4CCOCC4)cc3)o2)cc1 [Example 8, N-[4-(Morpholin-4-ylmethyl)phenyl]-5-phenyl-1,3-oxazol-2-amine] | < 1000 | < 10000 | < 1000
COc1cccc(-c2cnc(Nc3ccc(N4CCOCC4)cc3)o2)c1 [Example 9, 5-(3-Methoxyphenyl)-N-(4-morpholin-4-ylphenyl)-1,3-oxazol-2-amine] | < 1000 | < 1000 | < 1000
COc1cccc(-c2cnc(Nc3ccc(N4CCCCC4)cc3)o2)c1 [Example 10, 5-(3-Methoxyphenyl)-N-(4-piperidin-1-ylphenyl)-1,3-oxazol-2-amine] | < 1000 |  | < 10000
COc1cccc(-c2cnc(Nc3ccc(CN4CCOCC4)cc3)o2)c1 [Example 11, 5-(3-Methoxyphenyl)-N-[4-(morpholin-4-ylmethyl)phenyl]-1,3-oxazol-2-amine] | < 1000 | < 1000 | < 1000
CC(C)Oc1cccc(-c2cnc(Nc3ccc(N4CCN(C)CC4)cc3)o2)c1 [Example 12, 5-(3-Isopropoxyphenyl)-N-[4-(4-methylpiperazin-1-yl)phenyl]-1,3-oxazol-Z -amine] | < 1000 | < 100 | < 100
CN1CCN(c2ccc(Nc3ncc(-c4cccc(OC5CCCC5)c4)o3)cc2)CC1 [Example 13, 5-[3-(cyclopentyloxy)phenyl]-N-[4-(4-methylpiperazin-1-yl)phenyl]-1,3-oxazol-2-amine] | < 100 | < 100 | < 100
CC(C)COc1cccc(-c2cnc(Nc3ccc(N4CCN(C)CC4)cc3)o2)c1 [Example 14, 5-(3-Isobutoxyphenyl)-N-[4-(4-methylpiperazin-1-yl)phenyl]-1,3-oxazol-2-amine] | < 1000 | < 1000 | < 100
CN1CCN(c2ccc(Nc3ncc(-c4cccc(OCc5ccccc5)c4)o3)cc2)CC1 [Example 15, 5-[3-(Benzyloxy)phenyl]-N-[4-(4-methylpiperazin-1-yl)phenyl]-1,3-oxazol-2-amine] | < 1000 | < 1000 | < 100
C=C(C)COc1cccc(-c2cnc(Nc3ccc(N4CCN(C)CC4)cc3)o2)c1 [Example 16, N-[4-(4-methylpiperazin-1-yl)phenyl]-5-{3-[(2-methylprop-2-enyl)oxy]phenyl}-1,3-oxazol-2-amine] | < 1000 | < 100 | < 100

Further lines, results first:

IC50 [1] [nM] | IC50 [2] [nM] | IC50 [3] [nM] | Compound
< 100 | < 1000 | < 100 | CCCOc1cccc(-c2cnc(Nc3ccc(N4CCN(C)CC4)cc3)o2)c1 [Example 17, N-[4-(4-methylpiperazin-1-yl)phenyl]-5-(3-propoxyphenyl)-1,3-oxazol-2-amine]
< 1000 | < 100 | < 100 | CN1CCN(c2ccc(Nc3ncc(-c4cccc(OC5CCCCC5)c4)o3)cc2)CC1 [Example 18, 5-[3-(cyclohexyloxy)phenyl]-N-[4-(4-methylpiperazin-1-yl)phenyl]-1,3-oxazol-2-amine]
< 1000 | < 1000 | < 100 | COc1cccc(-c2cnc(Nc3ccc(N4CCN(C)CC4)c(Cl)c3)o2)c1 [Example 19, N-[3-chloro-4-(4-methylpiperazin-1-yl)phenyl]-5-(3-methoxyphenyl)-1,3-oxazol-2-amine]
< 1000 | < 1000 | < 100 | COc1cccc(-c2cnc(Nc3ccc(N4CCN(C)CC4)c(F)c3)o2)c1 [Example 20, N-[3-fluoro-4-(4-methylpiperazin-1-yl)phenyl]-5-(3-methoxyphenyl)-1,3-oxazol-2-amine]
< 1000 | < 1000 | < 100 | COc1cccc(-c2cnc(Nc3ccc(N4CCN(C)CC4)c(C(F)(F)F)c3)o2)c1 [Example 21, 5-(3-Methoxyphenyl)-N-[4-(4-methylpiperazin-1-yl)-3-(trifluoromethyl)phenyl]-1,3-oxazol-2-amine]
< 100 | < 1000 | < 100 | COc1cccc(-c2cnc(Nc3ccc(N4CCN(C)CC4)c(C)c3)o2)c1 [Example 22, 5-(3-Methoxyphenyl)-N-[3-methyl-4-(4-methylpiperazin-1-yl)phenyl]-1,3-oxazol-2-amine]
< 1000 |  | < 100 | CN1CCN(c2ccc(Nc3ncc(-c4cccc(O)c4)o3)cc2)CC1 [Example 29, 3-(2-{[4-(4-methylpiperazin-1-yl)phenyl]amino}-1,3-oxazol-5-yl)phenol]
< 1000 |  | < 100 | CN(C)Cc1ccc(Nc2ncc(-c3cccc(OC4CCCC4)c3)o2)cc1 [Example 41, 5-[3-(cyclopentyloxy)phenyl]-N-{4-[(dimethylamino)methyl]phenyl}-1,3-oxazol-2-amine]
